Data reported in article PMC4434572, “Identification of novel drugs to target dormant micrometastases” (BMC Cancer, 2015).
Values joined by “and” are separate entries in the source; they are usually repeats but may differ in a detail not shown here. Equal entries are not always repeated. Where two headings read alike, the source gives them in different places.

Assays:
[1] = tested on: DU145 (prostate); assay: Proliferation EC50 on Matrigel vs SISgel; assay type: cell-based
[2] = tested on: MDA-MB-435-GFP cells; assay: Flank xenograft model of ECM-suppressed cells co-injected with SISgel; assay type: in vivo, nu/nu mice; details: 45 mg/kg i.p. three times weekly for 3 weeks; 4 weeks after implantation
Description: The efficacy of DT320 was assessed using a flank xenograft model of ECM-suppressed cancer cells that we developed, as well as an orthotopic model of “triple-negative” breast cancer. All animal protocols were reviewed and approved by the OUHSC Institutional Animal Care and Use Committee according to criteria established by the NIH Office of Laboratory Animal Welfare, and animals were housed 5 per cage with enrichment (tubes) and wood chips in the AALAC-accredited OUHSC Animal Facility with a 12 h light/dark cycle. Animals had access to water and food ad libatum. Animals were monitored daily by trained facility personnel. In the flank model, GFP-labeled cells were co-injected with SISgel, which produces a suppressed, normalized phenotype that persists after the SISgel is resorbed, but which can re-emerge into active tumor growth after 30–60 days. Animals were all female nu/nu mice (NCI National Laboratory Frederick/Charles River animal production program). An optimized number of 5 × 10^5 GFP-labeled MDA-MB-435 cells in 100 μL DMEM medium, without additives, were mixed with 100 μL of SISgel and were kept on ice until injection to prevent polymerization of the SISgel. […] The cells injected into the flanks remained as a non-growing spot, as assessed by fluorometry of the spots and the lack of mitoses seen in tissue sections, for about 3–5 weeks before some began resuming malignant growth. […]

[3] = tested on: U251 (glioblastoma); assay: Proliferation EC50 on Matrigel vs SISgel; assay type: cell-based
[4] = tested on: AGS (gastric); assay: Proliferation EC50 on Matrigel vs SISgel; assay type: cell-based
[5] = tested on: MDA-MB-435 cells; assay: Western blot of protein levels after treatment; assay type: cell-based
Description: Protein content of selected proteins identified by reversed phase protein array (see supplementary materials) as being involved mechanistically in the response to DT320 was assayed by Western blot as described using the following antibodies. The following antibodies were purchased from Cell Signaling Technology (Beverly, MA) and diluted per manufacturer’s directions: Rabbit mAb Anti-Phospho-AKT (Ser473) (D9E) XP® #4060, Rabbit mAb anti-p38 MAPK (D13E1) XP® #8690, Mouse mAb anti-Phospho-SAPK/JNK (Thr183/Tyr185) (G9) #9255, Rabbit mAb anti-Phospho-CHK1 (Ser345) (133D3) #2348, Rabbit polyclonal anti-Phospho-CHK2 (Thr68) Antibody #2661, Rabbit polyclonal anti-BAX Antibody #2772, Rabbit polyclonal anti-Vinculin Antibody #4650, Mouse mAb anti-Cyclin D1 (DCS6) #2926, Rabbit mAb anti-Cyclin E2 (D52F9) b #3741, […], Mouse mAb anti-Cyclin B1 (V152) #4135, Rabbit mAb anti-cleaved PARP (Asp214) (D64E10) XP® #5625, Rabbit mAb anti-cleaved Caspase-3 (Asp175) (5A1E) #9654, Rabbit mAb anti-Nanog (D73G4), #4903; Rabbit mAb anti-Oct4 (C52G3) #2890; and Rabbit mAb anti-Sox2 (D6D9) #3579. Specificity of each antibody is illustrated on the company’s web page. For negative controls, pre-immune rabbit IgG was used. No signal was detected in the control IgG samples. No intensities or contrast were modified, but the appropriate bands were cut out using PhotoShop to prepare composite gel images.
To elucidate the mechanism of DT310 and DT320, cell cycle analysis and Western blotting was performed. The proteins for Western blot were selected from preliminary results using reverse phase protein array (RPPA) for DT320 and DT321 treated MDA-MB-435 and T24 cells. […] Proteins within these clusters showing the largest differences in protein expression and that were related to known anticancer drug action were confirmed by Western blot. Docetaxel was used as a positive control because it is known to induce a cell cycle arrest and apoptosis signature.

O=S(=O)([O-])c1cc(O)c2c(O)c(N=Nc3cccc4ccccc34)c(S(=O)(=O)[O-])cc2c1.[Na+].[Na+] [DT320, 4,5-Dihydroxy-3-(1-naphthalenylazo)-2,7-naphthalenedisulfonic acid disodium salt]
EC50 ([1]; DU145 on Matrigel, read-out: EC50 Matrigel): 183 µM | EC50 ([1]; DU145 on SISgel, read-out: EC50 SISgel): 45.7 µM | Ratio ([1]; Matrigel/SISgel EC50, DU145): 4.0 | flank xenografts in which ECM-suppressed cells were extirpated / spots disappeared [2]: six of eight and 6 of 8 | Ratio ([3]; Matrigel/SISgel EC50, U251): 1.5 | EC50 ([3]; U251 on Matrigel, read-out: EC50 Matrigel): 95 µM | EC50 ([3]; U251 on SISgel, read-out: EC50 SISgel): 64.6 µM | EC50 ([4]; AGS on Matrigel, read-out: EC50 Matrigel): 104 µM | EC50 ([4]; AGS on SISgel, read-out: EC50 SISgel): 45.1 µM | Ratio ([4]; Matrigel/SISgel EC50, AGS): 2.3 | Cyclin D1 (CCND1) expression [5]: induced | cleaved caspase 3 ([5]; 48 h): increased signal
